Consider 43 compounds from US11452717B2, “Small molecule activators of nicotinamide phosphoribosyltransferase (NAMPT) and uses thereof” (Sanford Burnham Prebys Medical Discovery Institute, priority 2017, dated 2022).

In the assay the target is NAMPT enzyme (Homo sapiens (Human), UniProt P43490). Nature of the assay: Enzyme Assay and NMN Detection (NAMPT reaction, fluorescence detection of NMN). The format is biochemical. To be noted: NAMPT activation, NMN formation. Put shortly: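 Reaction in 50 mM HEPES pH 7.5, 5 mM MgCl2, 0.1% Prionex, 0.005% Tween 20, 1 mM TCEP at room temperature, with 16 nM NAMPT, 120 uM ATP, 5 uM nicotinamide, 6.25 uM PRPP, 0.04 U/ml pyrophosphatase for 2 h. Stopped with acetophenone/KOH then formic acid; NMN quantified by fluorescence (ex380/em460) against calibration curve.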
NAMPT enzyme, sequence (P43490 whole entry, species assumed): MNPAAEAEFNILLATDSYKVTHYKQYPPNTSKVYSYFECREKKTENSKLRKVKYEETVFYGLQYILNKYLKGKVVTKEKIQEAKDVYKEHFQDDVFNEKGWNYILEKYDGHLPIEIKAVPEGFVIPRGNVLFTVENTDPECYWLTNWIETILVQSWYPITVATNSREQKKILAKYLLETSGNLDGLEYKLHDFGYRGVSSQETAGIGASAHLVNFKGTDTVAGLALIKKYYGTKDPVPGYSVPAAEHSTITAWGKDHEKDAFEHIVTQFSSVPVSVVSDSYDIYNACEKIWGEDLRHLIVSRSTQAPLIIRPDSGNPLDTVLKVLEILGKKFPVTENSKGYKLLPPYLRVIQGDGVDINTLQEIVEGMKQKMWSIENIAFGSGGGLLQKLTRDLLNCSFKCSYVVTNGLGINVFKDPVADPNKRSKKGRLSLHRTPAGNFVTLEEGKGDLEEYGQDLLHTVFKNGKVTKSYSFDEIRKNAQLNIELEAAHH

Some results are limits rather than exact numbers.

Broadly, the EC50 is the concentration at which the effect is half-maximal. Read a high EC50 as weaker potency.

On to `CC1Cc2ccccc2CN1S(=O)(=O)c1ccc(NC(=O)NCc2ccncc2)cc1` (stereo not shown) [1-[4-(3-Methyl-3,4-dihydro-1H-isoquinoline-2-sulfonyl)-phenyl]-3-pyridin-4-ylmethyl-urea], for which the EC50 (Table B-2) was 100 to 2000 nM. Turning to `COc1cccc(S(=O)(=O)c2ccc(NC(=O)NCc3cnco3)cc2)c1` [1-[4-(3-methoxy-benzenesulfonyl)-phenyl]-3-oxazol-5-ylmethyl-urea], the EC50 (Table B-5) lay in the range of 100 to 2000 nM.

`O=C(NCc1cn[nH]c1)Nc1ccc(S(=O)(=O)c2ccccc2-c2cccc(Cl)c2)cc1` [1-[4-(3′-Chloro-biphenyl-2-sulfonyl)-phenyl]-3-(1H-pyrazol-4-ylmethyl)-urea] registered an EC50 (Table B-4) of 100 to 2000 nM. Consider `O=C(NCc1ccncc1)Nc1ccc(S(=O)(=O)c2ccccc2-c2cccc(Cl)c2)cc1` [1-[4-(3′-Chloro-biphenyl-2-sulfonyl)-phenyl]-3-pyridin-4-ylmethyl-urea], for which, for the setting “Table B-6”, the EC50 is 100 to 2000 nM. `O=C(NCc1cn[nH]c1)Nc1ccc(S(=O)(=O)c2ccccc2-c2cccc(F)c2)cc1` [1-[4-(3′-Fluoro-biphenyl-2-sulfonyl)-phenyl]-3-(1H-pyrazol-4-ylmethyl)-urea] yielded an EC50 (Table B-4) of under 100 nM. `O=C(NCc1ccncc1)Nc1ccc(S(=O)(=O)c2ccccc2-c2cccc(F)c2)cc1` [1-[4-(3′-Fluoro-biphenyl-2-sulfonyl)-phenyl]-3-pyridin-4-ylmethyl-urea] gave an EC50 (Table B-6) of under 100 nM. `COc1cccc(-c2ccccc2S(=O)(=O)c2ccc(NC(=O)NCc3cn[nH]c3)cc2)c1` [1-[4-(3′-Methoxy-biphenyl-2-sulfonyl)-phenyl]-3-(1H-pyrazol-4-ylmethyl)-urea] yielded an EC50 (Table B-4) of 2000 to 5000 nM. As for `COc1cccc(-c2ccccc2S(=O)(=O)c2ccc(NC(=O)NCc3ccncc3)cc2)c1` [1-[4-(3′-Methoxy-biphenyl-2-sulfonyl)-phenyl]-3-pyridin-4-ylmethyl-urea], the EC50 (Table B-6) was 100 to 2000 nM. Regarding `Cc1cccc(-c2ccccc2S(=O)(=O)c2ccc(NC(=O)NCc3cn[nH]c3)cc2)c1` [1-[4-(3′-Methyl-biphenyl-2-sulfonyl)-phenyl]-3-(1H-pyrazol-4-ylmethyl)-urea], for the setting “Table B-4”, the EC50 is 100 to 2000 nM. Take `Cc1cccc(-c2ccccc2S(=O)(=O)c2ccc(NC(=O)NCc3ccncc3)cc2)c1` [1-[4-(3′-Methyl-biphenyl-2-sulfonyl)-phenyl]-3-pyridin-4-ylmethyl-urea]: for the setting “Table B-6”, the EC50 was in the range of 100 to 2000 nM. `O=C(NCc1cn[nH]c1)Nc1ccc(S(=O)(=O)c2ccc(Cl)cc2)cc1` [1-[4-(4-Chloro-benzenesulfonyl)-phenyl]-3-(1H-pyrazol-4-ylmethyl)-urea] had an EC50 (Table B-1) of under 100 nM. For `O=C(NCc1ccncc1)Nc1ccc(S(=O)(=O)c2ccc(Cl)cc2)cc1` [1-[4-(4-Chloro-benzenesulfonyl)-phenyl]-3-pyridin-4-ylmethyl-urea], the EC50 (Table B-2) lay within 100 to 2000 nM.

The compound `N#Cc1ccc(S(=O)(=O)c2ccc(NC(=O)NCc3cn[nH]c3)cc2)cc1` [1-[4-(4-Cyano-benzenesulfonyl)-phenyl]-3-(1H-pyrazol-4-ylmethyl)-urea] returned an EC50 (Table B-4) of 100 to 2000 nM. Compound `N#Cc1ccc(S(=O)(=O)c2ccc(NC(=O)NCc3cnco3)cc2)cc1` [1-[4-(4-Cyano-benzenesulfonyl)-phenyl]-3-oxazol-5-ylmethyl-urea] gave an EC50 (Table B-5) of 100 to 2000 nM. In turn, `N#Cc1ccc(S(=O)(=O)c2ccc(NC(=O)NCc3ccncc3)cc2)cc1` [1-[4-(4-Cyano-benzenesulfonyl)-phenyl]-3-pyridin-4-ylmethyl-urea] returned an EC50 (Table B-6) of 100 to 2000 nM.

Consider `COc1ccc(S(=O)(=O)c2ccc(NC(=O)NCc3cn[nH]c3)cc2)cc1` [1-[4-(4-Methoxy-benzenesulfonyl)-phenyl]-3-(1H-pyrazol-4-ylmethyl)-urea], for which, where the note is “Table B-1”, the EC50 was under 100 nM. Where the note is “Table B-5”, `COc1ccc(S(=O)(=O)c2ccc(NC(=O)NCc3cnco3)cc2)cc1` [1-[4-(4-Methoxy-benzenesulfonyl)-phenyl]-3-oxazol-5-ylmethyl-urea] registered an EC50 of 100 to 2000 nM. For `COc1ccc(S(=O)(=O)c2ccc(NC(=O)NCc3ccncc3)cc2)cc1` [1-[4-(4-Methoxy-benzenesulfonyl)-phenyl]-3-pyridin-4-ylmethyl-urea], the EC50 (Table B-2) was in the range of 100 to 2000 nM. For the compound `CN1CCN(S(=O)(=O)c2ccc(NC(=O)NCc3ccncc3)cc2)CC1` [1-[4-(4-Methyl-piperazine-1-sulfonyl)-phenyl]-3-pyridin-4-ylmethyl-urea], the EC50 (Table B-2) was in the range of 100 to 2000 nM. Turning to `O=C(NCc1ccncc1)Nc1ccc(S(=O)(=O)c2ccccc2-c2ccc(Cl)cc2)cc1` [1-[4-(4′-Chloro-biphenyl-2-sulfonyl)-phenyl]-3-pyridin-4-ylmethyl-urea], the EC50 (Table B-6) was 5000 to 20000 nM. In turn, `O=C(NCc1cn[nH]c1)Nc1ccc(S(=O)(=O)c2ccccc2-c2ccc(F)cc2)cc1` [1-[4-(4′-Fluoro-biphenyl-2-sulfonyl)-phenyl]-3-(1H-pyrazol-4-ylmethyl)-urea] returned an EC50 (Table B-4) of 100 to 2000 nM.

The compound `O=C(NCc1ccncc1)Nc1ccc(S(=O)(=O)c2ccccc2-c2ccc(F)cc2)cc1` [1-[4-(4′-Fluoro-biphenyl-2-sulfonyl)-phenyl]-3-pyridin-4-ylmethyl-urea] displayed an EC50 (Table B-6) of 100 to 2000 nM. `COc1ccc(-c2ccccc2S(=O)(=O)c2ccc(NC(=O)NCc3cn[nH]c3)cc2)cc1` [1-[4-(4′-Methoxy-biphenyl-2-sulfonyl)-phenyl]-3-(1H-pyrazol-4-ylmethyl)-urea] showed a 50% effective concentration (EC50) (Table B-4) of 5000 to 20000 nM.

`COc1ccc(-c2ccccc2S(=O)(=O)c2ccc(NC(=O)NCc3ccncc3)cc2)cc1` [1-[4-(4′-Methoxy-biphenyl-2-sulfonyl)-phenyl]-3-pyridin-4-ylmethyl-urea] showed an EC50 (Table B-6) of 5000 to 20000 nM.

For `Cc1ccc(-c2ccccc2S(=O)(=O)c2ccc(NC(=O)NCc3cn[nH]c3)cc2)cc1` [1-[4-(4′-Methyl-biphenyl-2-sulfonyl)-phenyl]-3-(1H-pyrazol-4-ylmethyl)-urea], the EC50 (Table B-4) lay in the range of 5000 to 20000 nM. As for `Cc1ccc(-c2ccccc2S(=O)(=O)c2ccc(NC(=O)NCc3ccncc3)cc2)cc1` [1-[4-(4′-Methyl-biphenyl-2-sulfonyl)-phenyl]-3-pyridin-4-ylmethyl-urea], under “Table B-6”, the EC50 lay in the range of 2000 to 5000 nM.

Compound `O=C(NCc1cn[nH]c1)Nc1ccc(S(=O)(=O)c2ccc(Cl)cn2)cc1` [1-[4-(5-Chloro-pyridine-2-sulfonyl)-phenyl]-3-(1H-pyrazol-4-ylmethyl)-urea] showed an EC50 (Table B-4) of 100 to 2000 nM.

As to `O=C(NCc1cnco1)Nc1ccc(S(=O)(=O)c2ccc(Cl)cn2)cc1` [1-[4-(5-Chloro-pyridine-2-sulfonyl)-phenyl]-3-oxazol-5-ylmethyl-urea], the EC50 (Table B-5) was in the range of 2000 to 5000 nM. Turning to `O=C(NCc1ccncc1)Nc1ccc(S(=O)(=O)c2ccc(Cl)cn2)cc1` [1-[4-(5-Chloro-pyridine-2-sulfonyl)-phenyl]-3-pyridin-4-ylmethyl-urea], the EC50 (Table B-6) was 100 to 2000 nM. Under “Table B-4”, `Cn1nc(-c2ccc(NC(=O)NCc3cn[nH]c3)cc2)c2cc(F)ccc21` [1-[4-(5-Fluoro-1-methyl-1H-indazol-3-yl)-phenyl]-3-(1H-pyrazol-4-ylmethyl)-urea] displayed an EC50 of 100 to 2000 nM.

In turn, `Cn1nc(-c2ccc(NC(=O)NCc3cnco3)cc2)c2cc(F)ccc21` [1-[4-(5-Fluoro-1-methyl-1H-indazol-3-yl)-phenyl]-3-oxazol-5-ylmethyl-urea] displayed an EC50 (Table B-5) of 2000 to 5000 nM. Where the note is “Table B-6”, `Cn1nc(-c2ccc(NC(=O)NCc3ccncc3)cc2)c2cc(F)ccc21` [1-[4-(5-Fluoro-1-methyl-1H-indazol-3-yl)-phenyl]-3-pyridin-4-ylmethyl-urea] displayed an EC50 of 100 to 2000 nM. `COc1ccc2c(c1)c(-c1ccc(NC(=O)NCc3cn[nH]c3)cc1)nn2C` [1-[4-(5-Methoxy-1-methyl-1H-indazol-3-yl)-phenyl]-3-(1H-pyrazol-4-ylmethyl)-urea] had an EC50 (Table B-4) of 100 to 2000 nM. Turning to `COc1ccc2c(c1)c(-c1ccc(NC(=O)NCc3cnco3)cc1)nn2C` [1-[4-(5-Methoxy-1-methyl-1H-indazol-3-yl)-phenyl]-3-oxazol-5-ylmethyl-urea], where the note is “Table B-5”, the EC50 was over 20000 nM.

`COc1ccc2c(c1)c(-c1ccc(NC(=O)NCc3ccncc3)cc1)nn2C` [1-[4-(5-Methoxy-1-methyl-1H-indazol-3-yl)-phenyl]-3-pyridin-4-ylmethyl-urea] displayed an EC50 (Table B-6) of 100 to 2000 nM. `Cc1ccc(S(=O)(=O)c2ccc(NC(=O)NCc3cn[nH]c3)cc2)nc1` [1-[4-(5-Methyl-pyridine-2-sulfonyl)-phenyl]-3-(1H-pyrazol-4-ylmethyl)-urea] yielded an EC50 (Table B-4) of 100 to 2000 nM. Consider `O=C(NCc1cnco1)Nc1ccc(S(=O)(=O)c2ccc(Cl)nc2)cc1` [1-[4-(6-Chloro-pyridine-3-sulfonyl)-phenyl]-3-oxazol-5-ylmethyl-urea], for which the EC50 (Table B-5) lay in the range of 2000 to 5000 nM. As for `O=C(NCc1ccncc1)Nc1ccc(S(=O)(=O)c2ccc(Cl)nc2)cc1` [1-[4-(6-Chloro-pyridine-3-sulfonyl)-phenyl]-3-pyridin-4-ylmethyl-urea], the EC50 (Table B-6) lay in the range of 100 to 2000 nM. `O=C(NCc1cnco1)Nc1ccc(S(=O)(=O)c2ccc(O)nc2)cc1` [1-[4-(6-Hydroxy-pyridine-3-sulfonyl)-phenyl]-3-oxazol-5-ylmethyl-urea] displayed an EC50 (Table B-5) of 100 to 2000 nM. For the setting “Table B-6”, `O=C(NCc1ccncc1)Nc1ccc(S(=O)(=O)c2ccc(O)nc2)cc1` [1-[4-(6-Hydroxy-pyridine-3-sulfonyl)-phenyl]-3-pyridin-4-ylmethyl-urea] had an EC50 of 100 to 2000 nM. `COc1ccc(S(=O)(=O)c2ccc(NC(=O)NCc3cnco3)cc2)cn1` [1-[4-(6-Methoxy-pyridine-3-sulfonyl)-phenyl]-3-oxazol-5-ylmethyl-urea] came in with an EC50 (Table B-5) of 100 to 2000 nM. Under “Table B-6”, `COc1ccc(S(=O)(=O)c2ccc(NC(=O)NCc3ccncc3)cc2)cn1` [1-[4-(6-Methoxy-pyridine-3-sulfonyl)-phenyl]-3-pyridin-4-ylmethyl-urea] returned an EC50 of 100 to 2000 nM.

`Cc1ccc(S(=O)(=O)c2ccc(NC(=O)NCc3cn[nH]c3)cc2)cn1` [1-[4-(6-Methyl-pyridine-3-sulfonyl)-phenyl]-3-(1H-pyrazol-4-ylmethyl)-urea] showed an EC50 (Table B-4) of 100 to 2000 nM.
